From PubChem BioAssay AID256 (DTP/NCI, 2004)
“And” between values parts separate entries of the source, which are not always exact repeats. Equal values may be shown once. Toxic doses and inconclusive results are not listed. Rule for the calls: active = survival T/C of 150% or more; inactive = T/C below 125% in these data.

Test system: CD2F1 mice, L1210 leukemia ip, survival T/C
Test: NCI In Vivo Anticancer Drug Screen. Data for tumor model L1210 Leukemia (intraperitoneal) in CD2F1 (CDF1) mice
Details: higher = longer survival
Procedure, shortened: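 Read-out first: treated-group measurement over vehicle-control measurement, expressed as a ratio. Animals bore a transplanted tumor line and were dosed with compound or vehicle.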

[1] = endpoint: mean survival time, dose: 200.0 mg/kg/injection, schedule: Q01DX009 (ip), vehicle: saline with Tween-80
[2] = endpoint: mean survival time, dose: 100.0 mg/kg/injection, schedule: Q04DX002 (ip), vehicle: saline with Tween-80
[3] = endpoint: mean survival time, dose: 200.0 mg/kg/injection, schedule: Q04DX002 (ip), vehicle: saline with Tween-80

Measured: T/C

O=C(O)CC(CC(=O)O)C(=O)O.[NH-]C1CCCCC1[NH-].[Pt+2]
inactive: endpoint: median survival time, dose: 3.12 mg/kg/injection, schedule: Q04DX003 (ip), vehicle: Klucel (hydroxypropylcellulose) (HPC) 112 % of control | endpoint: median survival time, dose: 3.12 mg/kg/injection, schedule: Q04DX003 (ip), vehicle: saline 106 % of control | endpoint: median survival time, dose: 6.25 mg/kg/injection, schedule: Q04DX003 (ip), vehicle: Klucel (hydroxypropylcellulose) (HPC) 112 % of control | endpoint: median survival time, dose: 6.25 mg/kg/injection, schedule: Q04DX003 (ip), vehicle: saline 106 % of control | endpoint: median survival time, dose: 12.5 mg/kg/injection, schedule: Q04DX003 (ip), vehicle: Klucel (hydroxypropylcellulose) (HPC) 122 % of control | endpoint: median survival time, dose: 12.5 mg/kg/injection, schedule: Q04DX003 (ip), vehicle: saline 101 % of control and 109 % of control | endpoint: median survival time, dose: 25.0 mg/kg/injection, schedule: Q04DX003 (ip), vehicle: Klucel (hydroxypropylcellulose) (HPC) 101 % of control | endpoint: median survival time, dose: 25.0 mg/kg/injection, schedule: Q04DX003 (ip), vehicle: saline 118 % of control and 107 % of control | endpoint: median survival time, dose: 50.0 mg/kg/injection, schedule: Q04DX003 (ip), vehicle: Klucel (hydroxypropylcellulose) (HPC) 103 % of control | endpoint: median survival time, dose: 50.0 mg/kg/injection, schedule: Q04DX003 (ip), vehicle: saline 109 % of control | endpoint: median survival time, dose: 100.0 mg/kg/injection, schedule: Q04DX003 (ip), vehicle: Klucel (hydroxypropylcellulose) (HPC) 109 % of control | endpoint: median survival time, dose: 100.0 mg/kg/injection, schedule: Q04DX003 (ip), vehicle: saline 120 % of control and 110 % of control | endpoint: median survival time, dose: 200.0 mg/kg/injection, schedule: Q04DX003 (ip), vehicle: Klucel (hydroxypropylcellulose) (HPC) 116 % of control | endpoint: median survival time, dose: 200.0 mg/kg/injection, schedule: Q04DX003 (ip), vehicle: saline 113 % of control

CC=C1C=C(C(C)(C)C)C(=O)C(C(C)(C)C)=C1
inactive: endpoint: mean survival time, dose: 25.0 mg/kg/injection, schedule: Q01DX009 (ip), vehicle: Klucel (hydroxypropylcellulose) (HPC) 90 % of control | endpoint: mean survival time, dose: 50.0 mg/kg/injection, schedule: Q01DX009 (ip), vehicle: Klucel (hydroxypropylcellulose) (HPC) 102 % of control | endpoint: mean survival time, dose: 100.0 mg/kg/injection, schedule: Q01DX009 (ip), vehicle: Klucel (hydroxypropylcellulose) (HPC) 98 % of control

O=C1c2ccccc2C(=O)N1c1ccc(Br)cc1
inactive: endpoint: mean survival time, dose: 100.0 mg/kg/injection, schedule: Q01DX001 (ip), vehicle: Klucel (hydroxypropylcellulose) (HPC) 100 % of control | endpoint: mean survival time, dose: 400.0 mg/kg/injection, schedule: Q01DX001 (ip), vehicle: Klucel (hydroxypropylcellulose) (HPC) 96 % of control

Cc1ccc([N+](=O)[O-])cc1NC(=O)NNC(=O)CNC(=O)Nc1ccc(F)cc1
inactive: [1] 87 % of control | endpoint: mean survival time, dose: 400.0 mg/kg/injection, schedule: Q01DX009 (ip), vehicle: saline with Tween-80 92 % of control

CC1(C(=O)O)CCCC1C(CCC(=O)O)C(=O)O (stereo not given)
inactive: endpoint: mean survival time, dose: 100.0 mg/kg/injection, schedule: Q04DX003 (ip), vehicle: saline 98 % of control | endpoint: mean survival time, dose: 200.0 mg/kg/injection, schedule: Q04DX003 (ip), vehicle: saline 96 % of control | endpoint: mean survival time, dose: 400.0 mg/kg/injection, schedule: Q04DX003 (ip), vehicle: saline 96 % of control

C[N+](C)(C)c1ccc(Cc2ccc([N+](C)(C)C)cc2)cc1
inactive: endpoint: mean survival time, dose: 6.3 micrograms/kg/injection, schedule: Q04DX002 (ip), vehicle: saline with Tween-80 101 % of control | endpoint: mean survival time, dose: 12.5 micrograms/kg/injection, schedule: Q04DX002 (ip), vehicle: saline with Tween-80 108 % of control | endpoint: mean survival time, dose: 25.0 micrograms/kg/injection, schedule: Q04DX002 (ip), vehicle: saline with Tween-80 101 % of control

CC(C)OC(=O)N(C(=O)OC(C)C)c1ccccc1
inactive: [2] 94 % of control | [3] 108 % of control | endpoint: mean survival time, dose: 400.0 mg/kg/injection, schedule: Q04DX002 (ip), vehicle: saline with Tween-80 94 % of control

O=C(O)c1ccc(Cl)c(N=C/C=C/c2ccccc2)c1
inactive: endpoint: mean survival time, dose: 75.0 mg/kg/injection, schedule: Q04DX003 (ip), vehicle: saline 97 % of control | endpoint: mean survival time, dose: 150.0 mg/kg/injection, schedule: Q04DX003 (ip), vehicle: saline 100 % of control | endpoint: mean survival time, dose: 300.0 mg/kg/injection, schedule: Q04DX003 (ip), vehicle: saline 100 % of control

N=C(N=c1cc(C(=O)NC(=N)NC(=N)Nc2ccc(Cl)cc2)n(C(=N)NC(=N)Nc2ccc(Cl)cc2)c(C(=O)NC(=N)NC(=N)Nc2ccc(Cl)cc2)c1)NC(=N)Nc1ccc(Cl)cc1
inactive: endpoint: mean survival time, dose: 100.0 mg/kg/injection, schedule: Q04DX003 (ip), vehicle: saline with Tween-80 98 % of control | endpoint: mean survival time, dose: 200.0 mg/kg/injection, schedule: Q04DX003 (ip), vehicle: saline with Tween-80 100 % of control | endpoint: mean survival time, dose: 400.0 mg/kg/injection, schedule: Q04DX003 (ip), vehicle: saline with Tween-80 100 % of control

Nc1nc(N)c(CCCc2ccccc2)c(N)n1
inactive: endpoint: mean survival time, dose: 2.0 mg/kg/injection, schedule: Q04DX002 (ip), vehicle: Klucel (hydroxypropylcellulose) (HPC) 104 % of control | endpoint: mean survival time, dose: 4.0 mg/kg/injection, schedule: Q04DX002 (ip), vehicle: Klucel (hydroxypropylcellulose) (HPC) 101 % of control | endpoint: mean survival time, dose: 8.0 mg/kg/injection, schedule: Q04DX002 (ip), vehicle: Klucel (hydroxypropylcellulose) (HPC) 109 % of control | endpoint: mean survival time, dose: 16.0 mg/kg/injection, schedule: Q04DX002 (ip), vehicle: Klucel (hydroxypropylcellulose) (HPC) 98 % of control | endpoint: mean survival time, dose: 32.0 mg/kg/injection, schedule: Q04DX002 (ip), vehicle: Klucel (hydroxypropylcellulose) (HPC) 98 % of control | endpoint: mean survival time, dose: 64.0 mg/kg/injection, schedule: Q04DX002 (ip), vehicle: Klucel (hydroxypropylcellulose) (HPC) 98 % of control

Cc1ccc(-n2nc(C3OCC(O)C3O)c3nc4cc(C)c(C)cc4nc32)cc1 (stereo not given)
inactive: endpoint: median survival time, dose: 10.0 mg/kg/injection, schedule: Q01DX005 (ip), vehicle: distilled water + Tween-80 98 % of control | endpoint: median survival time, dose: 20.0 mg/kg/injection, schedule: Q01DX005 (ip), vehicle: distilled water + Tween-80 97 % of control | endpoint: median survival time, dose: 40.0 mg/kg/injection, schedule: Q01DX005 (ip), vehicle: distilled water + Tween-80 103 % of control | endpoint: median survival time, dose: 80.0 mg/kg/injection, schedule: Q01DX005 (ip), vehicle: distilled water + Tween-80 97 % of control | endpoint: median survival time, dose: 160.0 mg/kg/injection, schedule: Q01DX005 (ip), vehicle: distilled water + Tween-80 98 % of control

[N-]=[N+]=NCCCCCCCCCCN=[N+]=[N-]
inactive: endpoint: mean survival time, dose: 75.0 mg/kg/injection, schedule: Q01DX001 (ip), vehicle: saline 98 % of control | endpoint: mean survival time, dose: 150.0 mg/kg/injection, schedule: Q01DX001 (ip), vehicle: saline 101 % of control | endpoint: mean survival time, dose: 300.0 mg/kg/injection, schedule: Q01DX001 (ip), vehicle: saline 98 % of control

Cc1nc(Cl)cc(Cl)c1C
inactive: endpoint: mean survival time, dose: 178.0 mg/kg/injection, schedule: Q04DX003 (ip), vehicle: other 100 % of control | endpoint: mean survival time, dose: 266.0 mg/kg/injection, schedule: Q04DX003 (ip), vehicle: other 100 % of control | endpoint: mean survival time, dose: 400.0 mg/kg/injection, schedule: Q04DX003 (ip), vehicle: other 95 % of control | endpoint: mean survival time, dose: 600.0 mg/kg/injection, schedule: Q04DX003 (ip), vehicle: other 105 % of control

O=C(OCC(O)C(O)C(O)C(O)COC(=O)c1ccccc1)c1ccccc1 (stereo not given) (tested in a mixture with another compound)
inactive: endpoint: mean survival time, dose: 50.0 mg/kg/injection, schedule: Q01DX009 (ip), vehicle: saline with Tween-80 98 % of control | endpoint: mean survival time, dose: 100.0 mg/kg/injection, schedule: Q01DX009 (ip), vehicle: saline with Tween-80 110 % of control | [1] 98 % of control

CCCCCCCCN1C(=O)CCC1=O
inactive: [2] 103 % of control | [3] 91 % of control

COc1ccc2c(C(=O)CCC(=O)O)cccc2c1
inactive: endpoint: mean survival time, dose: 100.0 mg/kg/injection, schedule: Q01DX009 (ip), vehicle: saline 94 % of control | endpoint: mean survival time, dose: 200.0 mg/kg/injection, schedule: Q01DX009 (ip), vehicle: saline 90 % of control | endpoint: mean survival time, dose: 400.0 mg/kg/injection, schedule: Q01DX009 (ip), vehicle: saline 100 % of control

O=C(C1=CN(CCCO)CCC1)c1cc2ccccc2[nH]1
inactive: endpoint: mean survival time, dose: 100.0 mg/kg/injection, schedule: Q01DX001 (ip), vehicle: saline with Tween-80 94 % of control | endpoint: mean survival time, dose: 200.0 mg/kg/injection, schedule: Q01DX001 (ip), vehicle: saline with Tween-80 94 % of control | endpoint: mean survival time, dose: 400.0 mg/kg/injection, schedule: Q01DX001 (ip), vehicle: saline with Tween-80 97 % of control
